Reference: patent US9815851B2, “Pyrrolo carboxamides as modulators of orphan nuclear receptor RAR-related orphan receptor-gamma (RORγ, NR1F3) activity and for the treatment of chronic inflammatory and autoimmune diseases” (PHENEX PHARMACEUTICALS AG, priority 2011, dated 2017)
Like-named read-outs stand apart in the source and are kept apart here.

What was measured:
[1] = molecular target: T1, RORγ ligand binding domain (LBD) (Homo sapiens, UniProt P51449); assay: TR-FRET Activity Assay (ligand sensing, RORγ-LBD / coactivator peptide interaction, LANCE); type: biochemical
T1 construct: made in house; host or cells: E. coli BL-21 (BL3), vector pDEST15
T1 sequence (P51449 269-508 limits assumed): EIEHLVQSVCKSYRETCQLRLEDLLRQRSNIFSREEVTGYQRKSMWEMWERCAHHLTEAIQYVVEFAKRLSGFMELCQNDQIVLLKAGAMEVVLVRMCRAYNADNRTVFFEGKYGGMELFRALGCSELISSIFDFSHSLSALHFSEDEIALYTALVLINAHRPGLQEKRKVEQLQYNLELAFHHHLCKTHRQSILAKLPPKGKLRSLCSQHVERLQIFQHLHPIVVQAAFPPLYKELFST

RORγ = molecular target: T2, RORγ (UniProt P51449); assay: RORγ Gal4 Reporter Gene Assay in 293T cells (firefly and renilla luciferase); type: cell-based, human
T2 sequence (P51449 1-518): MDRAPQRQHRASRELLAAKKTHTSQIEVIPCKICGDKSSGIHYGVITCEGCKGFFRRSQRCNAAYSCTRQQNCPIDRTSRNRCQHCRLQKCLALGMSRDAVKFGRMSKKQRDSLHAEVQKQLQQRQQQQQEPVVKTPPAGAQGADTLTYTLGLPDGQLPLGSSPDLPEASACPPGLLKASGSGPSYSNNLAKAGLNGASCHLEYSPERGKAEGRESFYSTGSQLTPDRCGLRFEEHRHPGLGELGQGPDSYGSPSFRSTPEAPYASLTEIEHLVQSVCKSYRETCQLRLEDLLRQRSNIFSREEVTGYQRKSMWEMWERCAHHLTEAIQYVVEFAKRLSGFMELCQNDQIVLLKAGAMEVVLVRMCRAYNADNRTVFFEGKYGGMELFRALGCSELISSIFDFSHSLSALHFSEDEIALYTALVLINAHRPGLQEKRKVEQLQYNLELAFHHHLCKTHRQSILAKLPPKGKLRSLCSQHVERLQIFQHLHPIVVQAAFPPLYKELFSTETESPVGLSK

[2] = first value of the cell FRET/FF/REN, TR-FRET activity assay, read-out: pIC50 (FRET) (converted)
[3] = second value of the cell, Gal4 reporter gene assay in 293T cells, firefly luciferase
[4] = third value of the cell, Gal4 reporter gene assay in 293T cells, renilla normalised luciferase

| SMILES | IC50 [1, 2] [nM] | pIC50 (FF) (RORγ; [3]) | pIC50 (REN) (RORγ; [4]) | IC50 [1] [nM] | pIC50 (FF) (RORγ) | pIC50 (REN) (RORγ) |
| --- | --- | --- | --- | --- | --- | --- |
| Cc1c(C(=O)NC2CCOCC2)cc(-c2ccc(S(=O)(=O)NC(C)(C)C)cc2)n1CC1CCCCC1 [17/237] | 1260 | 6.5 | 6.5 | – | – | – |
| Cc1c(C(=O)NC2CCOCC2)cc(-c2cc(C(F)(F)F)cc(C3(C)CC3)c2)n1CC1CCCCC1 [17/297] | 126 | 7.2 | 7.4 | – | – | – |
| Cc1c(C(=O)N2CCS(=O)(=O)CC2)cc(-c2ccc(S(=O)(=O)NC(C)(C)C)c(C(F)(F)F)c2)n1CC1CCCCC1 [17/199] | 631 | 6.6 | 6.7 | – | – | – |
| Cc1c(C(=O)NC2(C#N)CC2)cc(-c2cc(C(C)(C)C)cc(C(C)(C)C)c2)n1CC1CCCCC1 [1/12] | 1260 | 6.4 | 6.5 | – | – | – |
| Cc1c(C(=O)NCCC(=O)O)cc(-c2cc(C(C)(C)C)c3c(c2)C2(CCO3)CC2)n1CC1CCCCC1 [1/90] | 2000 | 7.0 | 6.9 | – | – | – |
| Cc1c(C(=O)NC2COC2)cc(-c2cc(C(C)(C)C)cc(C3(C)CC3)c2)n1CC1CCCCC1 [1/81] | 200 | 7.4 | 7.4 | – | – | – |
| Cc1c(C(=O)NC2COC2)cc(-c2cc(C(C)(C)C)cc(C(C)(C)C)c2)n1S(=O)(=O)N1CC(C)CC(C)C1 (stereo not drawn) [7/3] | 251 | 6.6 | 6.7 | – | – | – |
| Cc1c(C(=O)NC2CCOCC2)cc(-c2ccc(C(N)=O)c(C(C)(C)C)c2)n1CC1CCCCC1 [6/3] | – | – | – | 7940 | 5.1/5.9/5.7 | 5.1/5.9/5.7 |
| Cc1c(C(=O)NCC(C)(C)CC(=O)O)cc(-c2cc(C(C)(C)C)c3c(c2)C2(CCO3)CC2)n1CC1CCCCC1 [17/19] | 794 | 7.5 | 7.5 | – | – | – |
| Cc1c(C(=O)NC2COC2)cc(-c2cc(C(C)(C)C)cc(C(C)(C)C)c2)n1CC1CCCCCC1 [1/115] | 251 | 7.3 | 7.3 | – | – | – |
| COCC(=O)NC(C)(C)CNC(=O)c1cc(-c2cc(C(C)(C)C)c3c(c2)C2(CCO3)CC2)n(CC2CCCCC2)c1C [17/124] | – | – | – | 794 | 6.1/7.4/7.5 | 6.1/7.4/7.5 |
| Cc1c(C(=O)N2CCC(C)(C(=O)O)CC2)cc(-c2cc(C(C)(C)C)c3c(c2)C2(CCO3)CC2)n1CC1CCCCC1 [17/54] | 1580 | 7.1 | 7.2 | – | – | – |
| Cc1c(C(=O)NC2CCOCC2)cc(-c2ccc(S(=O)(=O)NC(C)(C)C)c(C(C)(C)C)c2)n1CC1CCCC1 [17/212] | – | – | – | 631 | 6.2/7.3/7.4 | 6.2/7.3/7.4 |
| COC(C)(C)c1cc(-c2cc(C(=O)NC3CCOCC3)c(C)n2CC2CCCCC2)cc2c1OCCC21CC1 [17/325] | – | – | – | 2510 | 5.6/7.1/7.2 | 5.6/7.1/7.2 |
| Cc1c(C(=O)N2CCOC(C(=O)O)C2)cc(-c2ccc(S(=O)(=O)NC(C)(C)C)c(C(F)(F)F)c2)n1CC1CCCCC1 (stereo not drawn) [17/137] | 501 | < 4.7 | < 4.7 | – | – | – |
| Cc1c(C(=O)NCC(N)=O)cc(-c2cc(C(C)(C)C)cc(C(C)(C)C)c2)n1CC1CCCCC1 [1/5] | 1000 | 6.3 | 6.2 | – | – | – |
| Cc1c(C(=O)NCCC(C)(C)C(=O)O)cc(-c2ccc(S(=O)(=O)NC(C)(C)C)c(C(F)(F)F)c2Cl)n1CC1CCCCC1 [17/289] | 1260 | 7.1 | 7.2 | – | – | – |
| Cc1c(C(=O)NC2CCOCC2)cc(-c2cc(C(C)(C)C)c3c(c2)C2(CCO3)CC2)n1CC1CCCCC1 [1/93] | 200 | 7.4 | 7.4 | – | – | – |
| COC(C)(C)CNC(=O)c1cc(-c2cc(C(C)(C)C)cc(C(C)(C)C)c2)n(CC2CCCCC2)c1C [1/35] | – | – | – | 126 | 6.9/6.9/6.9 | 6.9/6.9/6.9 |
| Cc1c(C(=O)NC2CCOCC2)cc(-c2cc(C(C)(C)O)cc3ccccc23)n1CC1CCCCC1 [17/185] | – | – | – | 501 | 6.3/6.4/6.2 | 6.3/6.4/6.2 |
| CNS(=O)(=O)c1ccc(-c2cc(C(=O)NC3CCOCC3)c(C)n2CC2CCCCC2)cc1C(F)(F)F [17/110] | 2000 | 6.3 | 6.5 | – | – | – |

| SMILES | IC50 [1, 2] [nM] | pIC50 (FF) (RORγ; [3]) | pIC50 (REN) (RORγ; [4]) | IC50 [1] [nM] | pIC50 (FF) (RORγ) | pIC50 (REN) (RORγ) |
| --- | --- | --- | --- | --- | --- | --- |
| Cc1c(C(=O)NC2COC2)cc(-c2cnc(OCC(C)(C)C)c(C(F)(F)F)c2)n1CC1CCCCC1 [9/13] | 1000 | 6.0 | 6.1 | – | – | – |
| Cc1c(C(=O)NCC(C)(C)C(N)=O)cc(-c2cc(C(C)(C)C)cc(C3(C)CC3)c2)n1CC1CCCCC1 [1/85] | 316 | 7.7 | 7.7 | – | – | – |
| CNC(=O)C(C)(C)CNC(=O)c1cc(-c2cc(C(C)(C)C)c3c(c2)C2(CCO3)CC2)n(CC2CCCCC2)c1C [Example 11/1] | 251 | 7.3 | 7.3 | – | – | – |
| Cc1c(C(=O)NCC(C)(C)O)cc(-c2cn(S(=O)(=O)N3CCCCC3)c3ccccc23)n1CC1CCCCC1 [9/2] | 631 | 7.4 | 7.5 | – | – | – |
| Cc1c(C(=O)NC2CCOCC2)cc(-c2ccc(C(=O)NCC3CCCCC3)c(C(C)(C)C)c2)n1CC1CCCCC1 [6/7] | – | – | – | 1000 | 6.0/6.5/6.4 | 6.0/6.5/6.4 |
| Cc1c(C(=O)NCCN2CCOCC2)cc(-c2cc(C(C)(C)C)cc(C3(C)CC3)c2)n1CC1CCCCC1 [1/88] | – | – | – | 398 | 6.4/6.5/6.5 | 6.4/6.5/6.5 |
| Cc1c(C(=O)NC2CCOCC2)cc(-c2ccc(S(=O)(=O)NC(C)(C)C)c(C(F)(F)F)c2)n1CC1(O)CCCCC1 [17/255] | 7940 | < 4.7 | < 4.7 | – | – | – |
| Cc1c(C(=O)N[C@H]2C[C@H](C(=O)O)C2)cc(-c2cc(Cl)cc(C(=O)NC(C)(C)C)c2)n1CC1CCCCC1 [17/298] | 2510 | 5.9 | 6.0 | – | – | – |
| Cc1c(C(=O)N[C@H]2C[C@H](C(=O)O)C2)cc(-c2cc(C(C)(C)C)nc(C(C)(C)C)n2)n1CC1CCCCC1 [17/354] | 1000 | 7.0 | 7.0 | – | – | – |
| Cc1c(S(=O)(=O)NC(C)(C)C)ccc(-c2cc(C(=O)NC3CCOCC3)c(C)n2CC2CCCCC2)c1Cl [17/274] | 251 | 7.9 | 7.9 | – | – | – |
| Cc1c(C(=O)NC2COC2)cc(-c2cc(C(F)(F)F)c(=O)n(CC(C)(C)C)c2)n1CC1CCCCC1 [9/14] | 7940 | 6.3 | 6.2 | – | – | – |
| Cc1c(C(=O)NCC2(O)CCSCC2)cc(-c2cc(C(C)(C)C)c3c(c2)C2(CCO3)CC2)n1CC1CCCCC1 [17/37] | 1260 | 7.1 | 7.1 | – | – | – |
| Cc1c(C(=O)NC2COC2)cc(-c2cc(C(C)(C)C)cc(C(C)(C)C)c2)n1S(=O)(=O)N(C)C1CCCCC1 [7/5] | – | – | – | 316 | 6.5/6.3/6.4 | 6.5/6.3/6.4 |
| Cc1c(C(=O)NCCC(C)(C)C(=O)O)cc(-c2cc(C(C)(C)C)cc(C3(C)CC3)c2)n1CC1CCCCC1 [17/73] | 1000 | 7.2 | 7.3 | – | – | – |
| Cc1c(C(=O)NC2CCOCC2)cc(-c2ccc(S(=O)(=O)NC(C)(C)C)c(C(F)(F)F)c2)n1C1CC12CCCC2 (stereo not drawn) [17/175] | 794 | 6.6 | 6.7 | – | – | – |
| COCc1c(C(=O)NCC(C)(C)O)cc(-c2ccc(S(=O)(=O)NC(C)(C)C)c(C(C)(C)C)c2)n1CC1CCCCC1 [1/28] | 794 | 6.7 | 6.8 | – | – | – |
| Cc1c(C(=O)NC2CCOCC2)cc(-c2cc(C(C)(C)O)c3c(c2)C2(CCO3)CC2)n1CC1CCCCC1 [Example 31, 1-(Cyclohexylmethyl)-5-(8-(2-hydroxypropan-2-yl)spiro[chroman-4,1′-cyclopropan]-6-yl)-2-methyl-N-(tetrahydro-2H-pyran-4-yl)-1H-pyrrole-3-carboxamide] | 1260 | 6.9 | 6.9 | – | – | – |
| Cc1c(C(=O)NCCC(C)(C)C(=O)O)cc(-c2ccc(S(=O)(=O)NC3(C#N)CC3)c(C(F)(F)F)c2)n1CC1CCCCC1 [17/361] | 2000 | 6.4 | 6.4 | – | – | – |
| CC(C)(CCNC(=O)c1cc(-c2cc(C(C)(C)C)cc(C3(C)CC3)c2)n(CC2CCCCC2)c1F)C(=O)O [20/5] | 794 | 7.0 | 7.0 | – | – | – |
| Cc1c(C(=O)N[C@H]2C[C@H](C(=O)O)C2)cc(-c2cc(C(=O)NC(C)(C)C)cc3ccccc23)n1CC1CCCCC1 [17/189] | 5010 | 6.3 | 6.3 | – | – | – |
